Assay results published in US8765729B2, “Cancer therapy” (Aeolus Sciences, Inc., priority 2001, dated 2014).

Key:
[1] = system: A549 cells; assay: 3H-thymidine incorporation (DNA synthesis) in A549 cells; format: cell-based, human; settings: 4 μM, 24 hours
Protocol: FIG. 16. A549 cells were grown 50% confluence in 24 well plates in complete media. Cells were then incubated for 24 hours with the above concentrations of drug and ^3H-thymidine (to assess DNA synthesis). After three washes in PBS, the cells were homogenized and the radioactivity counted. At 4 μM MnTE-2-PyP, there was a 50% inhibition of incorporation of ^3H-thymidine.

[2] = system: tumor angiogenesis, R230 mammary adenocarcinoma cells in Z-chambers; assay: Tumor angiogenesis in Z-chambers (microvessel density); format: in vivo, Fisher-344 rats; settings: 6 mg/kg i.p. 24 hours before implantation
Protocol: FIG. 5. Antiangiogenesis: Animals were pretreated with different SOD mimetics (6 mg/kg i.p.) 24 hours before implantation of 2.5 mil./ml R230 mammary adenocarcinoma cells in Z-chambers.
Immunohistochemistry was carried out using procedures described by Hsu et al (Hsu et al., j. Histochem. Cytochem. 29:577-580 (1981)). Briefly, paraffin embedded tissues were sectioned (5 microns) and antigen retrieval was performed using citrate buffer from Biogenex (San Ramon, Calif.). Tissues were treated with primary antibody against tissue transglutaminase (TG100, 1:10, endothelial cell marker, non-reactive to Factor XIIIa) (Neomarkers, Calif.) for 1 hour at 37° C. Secondary antibody (Jackson ImmunoResearch. PA) and tertiary. (Vector, Calif.) antibodies were incubated for 25 minutes at 37° C. and the location of the reaction was visualized with 3,3-diaminobenzidine tetrahydrochloride Sigma (St. Louis, Mo.). Slides were counterstained with hematoxylin and mounted with coverslips. Controls for the immunohistochemistry were treated with mouse IgG instead of primary antibody and were negative in any reactivity. […] Microvessel density was calculated as described by Weidner et al (Weidner et al, J. New Engl. J. Med. 324:1-8 (1991)). Briefly, six hot spots or areas with highest vessels marked by the vessel marker at a high power field (400×) per sample section were selected and number of blood vessel counted. […]

[3] = system: R3230 mammary adenocarcinoma cells in Z-chambers; assay: Tumor development in Z-chambers; format: in vivo, Fisher-344 rats; settings: 6 mg/kg i.p. 24 hours before implantation of 2.5 mil./ml cells
Protocol: FIG. 4. Animals were pretreated with different SOD mimetics (6 mg/kg i.p.) 24 hours before implantation of 2.5 mil./ml R3230 mammary adenocarcinoma cells in Z-chambers.
These chambers are constructed from customized plexi-glass rings with internal diameter of 10 mm and have a pore on the side. The two open surfaces are covered by nylon mesh (pore size 180 microns, Millipore, Mass.) and glued to the rings. Fibrinogen (Human fibrinogen, plasminogen depleted, CalBiochem) is prepared in DMEM, Gibco BRL) and a concentration of 4-5 mg/ml is utilized for the studies. Although the Fischer rats used in the study are immune competent, this purified batch of fibrinogen has been recognized to be very well conserved across species lines. It has already been shown that early angiogenic response to human fibrinogen is very similar to rat fibrinogen in fibrin gel chambers. The two different types of fibrinogen have also been tested in the Z-Chambers and no difference was found in angiogenic and healing response. Human fibrinogen was used.
The Fibrin Z-Chambers have fibrinogen solution poured inside the chamber through the pore and followed by 2 units of thrombin. […]
The Z-Chambers were harvested on day 1 or 12 post surgery. […] The depth of either the tumor tissue (tumor growth) or granulation tissue (wound healing) was measured with calipers on the 4×6 inch print. […]

CC[n+]1ccccc1-c1c2nc(c(-c3cccc[n+]3CC)c3ccc([n-]3)c(-c3cccc[n+]3CC)c3nc(c(-c4cccc[n+]4CC)c4ccc1[n-]4)C=C3)C=C2.[Mn+3] [Compound 10113, manganese(III)tetrakis(N-ethylpyridinium-2-yl)porphyrin]
inhibition of incorporation of 3H-thymidine [1]: 50% | tumor angiogenesis [2]: Significant inhibition of tumor angiogenesis | tumor development [3]: Significant (p<0.01) inhibition of tumor development
